For this assay, the system named is Saccharomyces cerevisiae lifespan extension, no nicotinamide. The assay can be described thus: yeast lifespan extension without nicotinamide, confirmation, yeast lifespan extension project, S. cerevisiae (AID 812).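 Further: growth read as optical density after 42 hours of incubation at 30C.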

Structures are written as SMILES. Activity calls are given as the source filed them. How the calls were made is not given here. Where only a bound is given, the exact number is not on record here.

The EC50 is the concentration giving half of the maximal effect. Regarding `CC(=C1C(=O)c2ccccc2C1=O)N1CCN(C/C=C/c2ccccc2)CC1`, the EC50 is > 40 µM (inactive). For `COc1ccc2c3c(cccc13)C(=O)N(O)C2=O`, the EC50 is > 40 µM (inactive).

The record behind these values is PubChem BioAssay AID812 (SRMLSC, 2007).
